Laboratory results from paper PMC8861615, “Searching for plant-derived antivirals against dengue virus and Zika virus” (Virology Journal, 2022).
“Also recorded” adds a separate entry of the source. Like-named read-outs stand apart in the source and are kept apart here.

Assays:
DENV-2 [1] = assay: Anti-DENV-2 activity by viral CPE reduction and MTT method in BHK-21 cells; format: cell-based, Dengue virus serotype 2
Protocol: (§1) Plant extracts were screened for their cytotoxic and anti-ZIKV and anti-DENV activities in Vero cells and BHK-21, respectively, in 96-well culture plates by observing the reduction of the viral cytopathic effect (CPE) and then measured by the MTT method. The crude extracts were dissolved in 4% DMSO aqueous solution, and their concentration was normalized to 50 µg/ml with Eagle's minimum essential medium (MEM) supplemented with 2% fetal bovine serum (FBS). Briefly, 8 × 10^3 of BHK-21 cells or 1 × 10^4 of Vero cells per well were seeded in a 96-well plate and incubated for 24 h at 37 °C and 5% CO2 atmosphere. Extract solution and virus suspension, at a multiplicity of infection (m.o.i.) of 2, for both viruses, were simultaneously added on 70% confluent monolayers. Each extract was tested in duplicate. Controls of untreated infected and untreated uninfected cells incubated with or without DMSO were included. Interferon-α 2B, in concentrations of 500 and 1000 IU/mL, was used as a positive antiviral control in all antiviral assays. […] Briefly, the supernatants were removed, and 30 µl of a stock solution of MTT (2 mg/ml) dissolved in phosphate-buffered saline were added to each well. After 90 min of incubation at 37 °C, 130 µl of DMSO were added to each well, and plates were homogenized for 5 min at 500 rpm. The absorbance values of each reaction were measured in an ELISA reader (Spectra Max, Molecular Devices, USA) at λ540 nm. […] Cytotoxicity (CC50) and anti-ZIKV/DENV-2 (CE50) experiments were performed in duplicate and repeated at least three times.
(§2) Viral CPE and cell viability were observed by optic microscopy and measured by the MTT method as previously described. […] The experiments were performed in duplicate and repeated at least three times.
(§3) Bioassay data were normalized to untreated uninfected cells and the EC50 and CC50 values were obtained using GraphPad Prism 5 based on nonlinear logistic regression of the experimental dose–response curves. […] The CC50 and EC50 values ratio was used as a selectivity index (SI).

ZIKV [2] = assay: microbe, parasite or virus in culture; format: cell-based, Zika virus; conditions: for ZIKV EC50 (µM) / EC50: compounds, Vero cells, MTT
Protocol: as §1, §2, §3

BHK-21 cells = assay: Cytotoxicity (CC50) by MTT method in BHK-21 cells; format: cell-based, Hamster; conditions: for CC50: compounds, MTT
Protocol: (§4) Compounds and selected extracts that tested positive for anti-ZIKV or anti-DENV-2 activity at the screening step had their CC50 determined by using an 8‐point dose range in 96 well microplate containing Vero or BHK-21 cell monolayers. Cell viability was observed by optic microscopy and measured by the MTT method as described. The experiments were performed in duplicate and repeated at least three times.
(§5) Bioassay data were normalized to untreated uninfected cells and the EC50 and CC50 values were obtained using GraphPad Prism 5 based on nonlinear logistic regression of the experimental dose–response curves. The values correspond to three independent assays' average and standard deviation with at least 8 sample distinct concentrations. The CC50 and EC50 values ratio was used as a selectivity index (SI). The extracts and compounds with higher SI values were considered the most promising and selected for further investigation if available in sufficient quantities.

Vero cells = assay: Cytotoxicity (CC50) by MTT method in Vero cells; format: cell-based; conditions: for CC50: compounds, MTT
Protocol: as §4, §5

DENV-2 [3] = assay: Virucidal activity by plaque reduction assay, DENV in BHK-21 cells; format: cell-based, Dengue virus serotype 2; conditions: compounds
Protocol: (§6) The virucidal activity of extracts and compounds against ZIKV and DENV was assessed by plaque reduction assay in Vero and BHK-21 cells, respectively, in 24 well microplates. […] Virus suspension without the extract/compound was included as a control. Surviving infectious viral particles were assessed by viral plaque formation assay. Briefly, the infected monolayers were overlaid with 1.5% carboxymethyl cellulose containing MEM with 2% FBS and incubated for five days. After that, cell monolayers were fixed with 10% formaldehyde and stained with 1% crystal violet 1% in an 30% ethanol aqueous solution.

ZIKV [4] = assay: Virucidal activity by plaque reduction assay, ZIKV in Vero cells; format: cell-based, Zika virus; conditions: compounds
Protocol: as §6

[5] = Cytotoxicity (CC50) by MTT method in BHK-21 cells; format: cell-based, Hamster; conditions: hamster, compounds, MTT
Protocol: as §4, §5

[6] = Cytotoxicity (CC50) by MTT method in Vero cells; format: cell-based; conditions: African green monkey, compounds, MTT
Protocol: as §4, §5

[7] = Dengue virus, DENV2, BHK-21, read-out: DENV-2 EC50 (µM)
[8] = compounds, BHK-21 cells, MTT, read-out: DENV-2 EC50

Compound	DENV-2 EC50 (µM) (DENV-2 [1]; compounds, BHK-21 cells, MTT)	CC50 (BHK-21 cells) [µM]	CC50 (Vero cells) [µM]	DENV-2 Virucidal activity (DENV-2 [3])	ZIKV Virucidal activity (ZIKV [4])	EC50 (ZIKV [2]) [µM]	also measured
CC(=O)O[C@H]1[C@H]2c3cc4c(cc3CN3CCC(=C[C@@H]1OC(C)=O)[C@H]23)OCO4 [1,2-diacetyl-lycorine]	no antiviral activity; also recorded: Inactive	> 100	> 100	No	No	–	ZIKV EC50 (µM) (ZIKV [2]): Inactive
CC(=O)O[C@H]1[C@H]2c3cc4c(cc3CN3CCC(=C[C@@H]1O)[C@H]23)OCO4 [1-acetyl-lycorine]	no antiviral activity; also recorded: Inactive	7.8	19.8	No	No	19.3	–
O[C@H]1[C@H]2c3cc4c(cc3CN3CCC(=C[C@@H]1O)[C@H]23)OCO4 [Lycorine]	–	–	–	No	No	–	EC50 (DENV-2 [1]; [7]): 0.5 µM; EC50 (ZIKV [2]; Zika virus): 0.9 µM; CC50 [5]: 4.3 µM; CC50 [6]: 3.4 µM
O=C1NC2C(=C[C@H](O)[C@@H](O)[C@H]2OC2OCC(O)C(O)C2O)c2cc3c(c(O)c21)OCO3 (stereo partly drawn) [Narciclasine-4-O-β-D-xylopyranoside, narciclasine-4-O-β-D-xylopyranoside]	–	39.3	51.8	No	No	7.9	EC50 (DENV-2 [1]; [8]): 7.9 µM; Times less toxic than narciclasine in BHK-21 cells (BHK-21 cells; ratio versus narciclasine): 430 times; Times less toxic than narciclasine in Vero cells (Vero cells; ratio versus narciclasine): 430 times
O=C1N[C@@H]2C(=C[C@H](O)[C@@H](O)[C@H]2O)c2cc3c(c(O)c21)OCO3 [Narciclasine]	–	–	–	No	No	0.02	EC50 (DENV-2 [1]; [8]): 0.02 µM; Active concentration against DENV-2, times less than lycorine (DENV-2 [1]; ratio versus lycorine): 25 times; Active concentration against DENV-2, times less than pretazettine (DENV-2 [1]; ratio versus pretazettine): 40 times; Active concentration against ZIKV, times less than lycorine (ZIKV [2]; ratio versus lycorine): 45 times; Active concentration against ZIKV, times less than pretazettine (ZIKV [2]; ratio versus pretazettine): 95 times
CO[C@@H]1C=C[C@@]23c4cc5c(cc4C(O)O[C@H]2CN(C)[C@H]3C1)OCO5 (stereo partly drawn) [Pretazettine]	–	–	–	No	No	–	EC50 (DENV-2 [1]; [7]): 0.8 µM; EC50 (ZIKV [2]; Zika virus): 1.9 µM; CC50 ([5]; BHK-21 cell monolayers): 5.4 µM; CC50 ([6]; Vero cell monolayers): 7.2 µM
C[C@@H]1O[C@@H](OC[C@H]2O[C@@H](Oc3c(-c4ccc(O)c(O)c4)oc4cc(O)cc(O)c4c3=O)[C@H](O)[C@@H](O)[C@@H]2O)[C@H](O)[C@H](O)[C@H]1O [Rutine]	no antiviral activity; also recorded: Inactive	> 300	> 300	No	–	–	ZIKV EC50 (µM) (ZIKV [2]): no antiviral activity; also recorded: Inactive
